In assay [1] the test system is Respiratory syncytial virus (RSV) strain A2. The assay can be described thus: RSV antiviral assay (HEp-2, 96 well). The format is cell-based. The settings on record: Table 3.
The subject of a further assay is SARS-CoV-2. Kind of assay: SARS-CoV-2 antiviral assay (A549-hACE2, Nano luciferase). The format is cell-based. The settings on record: Table 4.
[2] abbreviates: read-out: EC50 RSV HEP2 96, HEp-2 cells, RSV A2, MOI=4, 4 days, 96 well.
The mark [3] stands for this setting: Severe acute respiratory syndrome coronavirus 2, 48 h, A549-hACE2 cells, SARS-CoV2-Nano, MOI 0.025, 48 h, read-out: EC50 SARS CoV2.
Setting [4] is: human respiratory syncytial virus, HEp-2, 96 h, read-out: EC50 RSV HEP2 96, HEp-2 cells, RSV A2, MOI=4, 4 days, 96 well.
Setting [5] is: A549-hACE2 cells, SARS-CoV2-Nano, MOI 0.025, 48 h, read-out: EC50 SARS CoV2.

Where two headings read alike, the source gives them in different places.

The EC50 is the midpoint of the concentration-response curve. Take `CC(=O)O[C@H]1[C@@H](OC(C)=O)[C@](C#N)(c2ccc3c(N)ncnn23)O[C@@H]1COP(=O)(N[C@@H](C)C(=O)OC1CCC1)Oc1ccc(C2CC2)cc1` (single isomer, unassigned) [Example 53b]: the EC50 in assay [1] (setting [2]) turned out to be 21.2 nM; in the assay on SARS-CoV-2 (setting [3]), 103 nM. As for `CCC(=O)O[C@H]1[C@@H](OC(=O)CC)[C@](C#N)(c2ccc3c(N)ncnn23)O[C@@H]1COP(=O)(N[C@@H](C)C(=O)OC1CCC1)Oc1ccc(C2CC2)cc1` (single isomer, unassigned) [Example 54a], the results for the EC50 (in assay [1] (setting [4]); with SARS-CoV-2 (setting [3])) were 13.1 nM and 102 nM, respectively. In the case of `CCC(=O)O[C@H]1[C@@H](OC(=O)CC)[C@](C#N)(c2ccc3c(N)ncnn23)O[C@@H]1COP(=O)(N[C@@H](C)C(=O)OC1CCC1)Oc1ccc(C2CC2)cc1` (single isomer, unassigned) [Example 54b], the values for the EC50 (in assay [1] (setting [2]); in the assay with SARS-CoV-2 (setting [5])) were 20.9 nM and 164 nM, respectively. On the same counts, the results for `CCC(CC)COC(=O)[C@H](C)NP(=O)(OC[C@H]1O[C@@](C#N)(c2ccc3c(N)ncnn23)[C@H](OC(C)=O)[C@@H]1OC(C)=O)Oc1cccc2ccccc12` (single isomer, unassigned) [Example 78a] are 65.2 nM and 117 nM. Turning to `CCC(=O)O[C@H]1[C@@H](OC(=O)CC)[C@](C#N)(c2ccc3c(N)ncnn23)O[C@@H]1COP(=O)(N[C@@H](C)C(=O)OCC(CC)CC)Oc1cccc2ccccc12` (single isomer, unassigned) [Example 79a], the EC50 in assay [1] (setting [2]) was found to be 61.2 nM; with SARS-CoV-2 (setting [5]) it was 126 nM. The matching figures for `CCC(=O)O[C@H]1[C@@H](OC(=O)CC)[C@](C#N)(c2ccc3c(N)ncnn23)O[C@@H]1COP(=O)(N[C@@H](C)C(=O)OC1CC2(CCC2)C1)Oc1cccc2ccccc12` (single isomer, unassigned) [Example 87a]: 31.1 nM and 60.2 nM.

For the compound `C[C@H](NP(=O)(OC[C@H]1O[C@@](C#N)(c2ccc3c(N)ncnn23)[C@H](O)[C@@H]1O)Oc1cccc2ccccc12)C(=O)OC1CCC1` (single isomer, unassigned) [Intermediate P7a-2], the EC50 in assay [1] (setting [2]) was 65.1 nM; with SARS-CoV-2 (Severe acute respiratory syndrome coronavirus 2, 48 h, read-out: EC50 SARS CoV2, A549-hACE2 cells, SARS-CoV2-Nano, MOI 0.025, 48 h), 275 nM. Turning to `C[C@H](NP(=O)(OC[C@H]1O[C@@](C#N)(c2ccc3c(N)ncnn23)[C@H](O)[C@@H]1O)Oc1ccc(C(C)(C)C)cc1)C(=O)OCC1CCC1` (stereo partly drawn) [Example 59, cyclobutylmethyl (2S)-2-[[[(2R,3S,4R,5R)-5-(4-aminopyrrolo[2,1-f][1,2,4]triazin-7-yl)-5-cyano-3,4-dihydroxy-tetrahydrofuran-2-yl]methoxy-(4-tert-butylphenoxy)phosphoryl]amino]propanoate], the EC50 in assay [1] (setting [4]) is 25.3 nM; in the assay on SARS-CoV-2 (setting [3]) it was 160 nM. The matching figures for `CC(C)C(=O)O[C@H]1[C@@H](OC(=O)C(C)C)[C@](C#N)(c2ccc3c(N)ncnn23)O[C@@H]1COP(=O)(N[C@@H](C)C(=O)OCC1CCC1)Oc1ccc(C(C)(C)C)cc1` (stereo partly drawn) [Example 60, [(2R,3R,4R,5R)-5-(4-aminopyrrolo[2,1-f][1,2,4]triazin-7-yl)-2-[[(4-tert-butylphenoxy)-[[(1S)-2-(cyclobutylmethoxy)-1-methyl-2-oxo-ethyl]amino]phosphoryl]oxymethyl]-5-cyano-4-(2-methylpropanoyloxy)tetrahydrofuran-3-yl] 2-methylpropanoate]: 64 nM and 180 nM. The matching figures for `CC(C)C(=O)O[C@H]1[C@@H](OC(=O)C(C)C)[C@](C#N)(c2ccc3c(N)ncnn23)O[C@@H]1COP(=O)(N[C@@H](C)C(=O)OC1CC2(CCC2)C1)Oc1ccc(C(C)(C)C)cc1` (stereo partly drawn) [Example 66, [(2R,3R,4R,5R)-5-(4-aminopyrrolo[2,1-f][1,2,4]triazin-7-yl)-2-[[(4-tert-butylphenoxy)-[[(1S)-1-methyl-2-oxo-2-spiro[3.3]heptan-2-yloxy-ethyl]amino]phosphoryl]oxymethyl]-5-cyano-4-(2-methylpropanoyloxy)tetrahydrofuran-3-yl] 2-methylpropanoate]: 61.9 nM and 207 nM.

As for `CCC(CC)COC(=O)[C@H](C)NP(=O)(OC[C@H]1O[C@@](C#N)(c2ccc3c(N)ncnn23)[C@H](OC(=O)C(C)C)[C@@H]1OC(=O)C(C)C)Oc1cccc2ccccc12` (stereo partly drawn) [Example 70, [(2R,3R,4R,5R)-5-(4-aminopyrrolo[2,1-f][1,2,4]triazin-7-yl)-5-cyano-2-[[[[(1S)-2-(2-ethylbutoxy)-1-methyl-2-oxo-ethyl]amino]-(1-naphthyloxy)phosphoryl]oxymethyl]-4-(2-methylpropanoyloxy)tetrahydrofuran-3-yl] 2-methylpropanoate], the EC50 in assay [1] (setting [4]) turned out to be 49 nM; in the assay on SARS-CoV-2 (setting [3]), 319 nM. For the compound `CCC(=O)O[C@H]1[C@@H](OC(=O)CC)[C@](C#N)(c2ccc3c(N)ncnn23)O[C@@H]1COP(=O)(N[C@@H](C)C(=O)OC1CCC1)Oc1ccccc1` (stereo partly drawn) [Example 107, (2R,3R,4R,5R)-2-(4-aminopyrrolo[2,1-f][1,2,4]triazin-7-yl)-2-cyano-5-((((((S)-1-cyclobutoxy-1-oxopropan-2-yl)amino)(phenoxy)phosphoryl)oxy)methyl)tetrahydrofuran-3,4-diyl Dipropionate], the 50% effective concentration (EC50) came out at 20.1 nM in assay [1] (setting [4]) and 180 nM in the assay on SARS-CoV-2 (setting [3]).

As for `CCOC(=O)[C@H](C)NP(=O)(OC[C@H]1O[C@@](C#N)(c2ccc3c(N)ncnn23)[C@H](OC(=O)CC)[C@@H]1OC(=O)CC)Oc1ccc(C(C)(C)C)cc1` (stereo partly drawn) [Example 108, (2R,3R,4R,5R)-2-(4-aminopyrrolo[2,1-f][1,2,4]triazin-7-yl)-5-((((4-(tert-butyl)phenoxy)(((S)-1-ethoxy-1-oxopropan-2-yl)amino)phosphoryl)oxy)methyl)-2-cyanotetrahydrofuran-3,4-diyl Dipropionate], the figures for the EC50 (in assay [1] (setting [4]); with SARS-CoV-2 (setting [3])) were 27.7 nM and 82.9 nM, respectively. For `CCOC(=O)O[C@H]1[C@@H](OC(=O)OCC)[C@](C#N)(c2ccc3c(N)ncnn23)O[C@@H]1COP(=O)(N[C@@H](C)C(=O)OCC)Oc1ccc(C(C)(C)C)cc1` (stereo partly drawn) [Example 124, ethyl ((((2R,3R,4R,5R)-5-(4-aminopyrrolo[2,1-f][1,2,4]triazin-7-yl)-5-cyano-3,4-bis((ethoxycarbonyl)oxy)tetrahydrofuran-2-yl)methoxy)(4-(tert-butyl)phenoxy)phosphoryl)-L-alaninate], the EC50 in assay [1] (setting [4]) is 67.1 nM. Still for that read-out and setting: the result for `CCCCCCOC(=O)[C@H](C)NP(=O)(OC[C@H]1O[C@@](C#N)(c2ccc3c(N)ncnn23)[C@H](OC(=O)C(C)C)[C@@H]1OC(=O)C(C)C)Oc1ccc(C(C)(C)C)cc1` (stereo partly drawn) [Example 125, (2R,3R,4R,5R)-2-(4-aminopyrrolo[2,1-f][1,2,4]triazin-7-yl)-5-((((4-(tert-butyl)phenoxy)(((S)-1-(hexyloxy)-1-oxopropan-2-yl)amino)phosphoryl)oxy)methyl)-2-cyanotetrahydrofuran-3,4-diyl bis(2-methylpropanoate)] reads 21.1 nM. As for `CCOC(=O)O[C@H]1[C@@H](OC(=O)OCC)[C@](C#N)(c2ccc3c(N)ncnn23)O[C@@H]1CO[P@@](=O)(N[C@@H](C)C(=O)OCC(CC)CC)Oc1ccccc1` [Example 127, 2-ethylbutyl ((S)-(((2R,3R,4R,5R)-5-(4-aminopyrrolo[2,1-f][1,2,4]triazin-7-yl)-5-cyano-3,4-bis((ethoxycarbonyl)oxy)tetrahydrofuran-2-yl)methoxy)(phenoxy)phosphoryl)-L-alaninate], the EC50 in assay [1] (setting [4]) was determined as 34.1 nM. `COC(C)(C)COC(=O)[C@H](C)N[P@](=O)(OC[C@H]1O[C@@](C#N)(c2ccc3c(N)ncnn23)[C@H](OC(=O)CC(C)C)[C@@H]1OC(=O)CC(C)C)Oc1ccccc1` [Example 168, (2R,3R,4R,5R)-2-(4-aminopyrrolo[2,1-f][1,2,4]triazin-7-yl)-2-cyano-5-((((S)—(((S)-1-(2-methoxy-2-methylpropoxy)-1-oxopropan-2-yl)amino)(phenoxy)phosphoryl)oxy)methyl)tetrahydrofuran-3,4-diyl bis(3-methylbutanoate)]: the EC50 in assay [1] (setting [4]) was found to be 111 nM.

In the case of `CCC(=O)O[C@H]1[C@@H](OC(=O)CC)[C@](C#N)(c2ccc3c(N)ncnn23)O[C@@H]1CO[P@@](=O)(N[C@@H](C)C(=O)OCC(C)(C)OC)Oc1ccccc1` [Example 169, (2R,3R,4R,5R)-2-(4-aminopyrrolo[2,1-f][1,2,4]triazin-7-yl)-2-cyano-5-((((S)—(((S)-1-(2-methoxy-2-methylpropoxy)-1-oxopropan-2-yl)amino)(phenoxy)phosphoryl)oxy)methyl)tetrahydrofuran-3,4-diyl Dipropionate], in assay [1] (setting [4]), the EC50 came to 62.9 nM. On to `CCC(C)(C)COC(=O)[C@H](C)NP(=O)(OC[C@H]1O[C@@](C#N)(c2ccc3c(N)ncnn23)[C@H](O)[C@@H]1O)Oc1ccccc1` (stereo partly drawn) [Intermediate D9, 2,2-dimethylbutyl ((((2R,3S,4R,5R)-5-(4-aminopyrrolo[2,1-f][1,2,4]triazin-7-yl)-5-cyano-3,4-dihydroxytetrahydrofuran-2-yl)methoxy)(phenoxy)phosphoryl)-L-alaninate], for which the EC50 in assay [1] (setting [4]) is 65.4 nM. Consider `C[C@H](NP(=O)(OC[C@H]1O[C@@](C#N)(c2ccc3c(N)ncnn23)[C@H](O)[C@@H]1O)Oc1ccccc1)C(=O)OCCC(C)(C)C` (stereo partly drawn) [Intermediate P8a, 3,3-dimethylbutyl ((((2R,3S,4R,5R)-5-(4-aminopyrrolo[2,1-f][1,2,4]triazin-7-yl)-5-cyano-3,4-dihydroxytetrahydrofuran-2-yl)methoxy)(phenoxy)phosphoryl)-L-alaninate], for which, in assay [1] (setting [4]), the EC50 is 20.3 nM. Still for that read-out and setting: the result for `CCC(C)(C)CCOC(=O)[C@H](C)NP(=O)(OC[C@H]1O[C@@](C#N)(c2ccc3c(N)ncnn23)[C@H](O)[C@@H]1O)Oc1ccccc1` (stereo partly drawn) [Intermediate S4, 3,3-dimethylpentyl ((((2R,3S,4R,5R)-5-(4-aminopyrrolo[2,1-f][1,2,4]triazin-7-yl)-5-cyano-3,4-dihydroxytetrahydrofuran-2-yl)methoxy)(phenoxy)phosphoryl)-L-alaninate] reads 14.9 nM.

These data come from patent US12404289B2 (Gilead Sciences, Inc., priority 2020, dated 2025).
